Test results reported in US7704995B2 (Exelixis, Inc., priority 2003, dated 2010).

Molecular target: T1, Chk1 (Homo sapiens, UniProt O14757)
T1 construct: purchased Upstate Biotechnology
T1 sequence (O14757 1-476): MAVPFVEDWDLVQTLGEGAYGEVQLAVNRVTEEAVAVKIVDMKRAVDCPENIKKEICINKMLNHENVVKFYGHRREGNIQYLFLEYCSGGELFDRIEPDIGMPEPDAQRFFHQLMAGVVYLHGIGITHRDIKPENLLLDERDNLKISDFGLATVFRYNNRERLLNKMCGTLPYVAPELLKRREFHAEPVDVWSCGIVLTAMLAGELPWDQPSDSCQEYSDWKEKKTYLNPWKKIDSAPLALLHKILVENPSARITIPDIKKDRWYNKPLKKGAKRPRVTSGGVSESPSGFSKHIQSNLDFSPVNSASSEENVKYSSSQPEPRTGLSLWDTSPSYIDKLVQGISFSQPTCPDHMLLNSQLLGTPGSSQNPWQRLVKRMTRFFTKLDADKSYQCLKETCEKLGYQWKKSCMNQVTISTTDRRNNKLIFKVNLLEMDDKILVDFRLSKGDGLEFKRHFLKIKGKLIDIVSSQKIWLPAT
Test: Chk1 kinase assay: incorporation of γ-33P ATP into immobilized myelin basic protein
Type: biochemical
Conditions: read-out: Chk1 IC50
In short: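 Enzyme activity is measured as γ-33P transfer from ATP onto immobilized MBP over 1 h at room temperature, with Chk1 at 10 nM/10 μM unlabeled ATP and Chk2 at 20 nM/30 μM unlabeled ATP. Compounds are tested in 1% DMSO.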

SMILES | IC50 [nM]
CNC(=O)c1nc(-c2cccc(C(=O)NCc3ccc(F)cc3Cl)c2)cnc1N [Example 370, 3-amino-6-[3-({[(2-chloro-4-fluorophenyl)methyl]amino}carbonyl)phenyl]-N-methylpyrazine-2-carboxamide] | 50 to 1000
CNC(=O)c1nc(-c2cccc(C(=O)NCc3ccc(OC)c(OC)c3)c2)cnc1N [Example 371, 3-amino-6-{3-[({[3,4-bis(methyloxy)phenyl]methyl}amino)carbonyl]phenyl}-N-methylpyrazine-2-carboxamide] | 50 to 1000
CNC(=O)c1nc(-c2cccc(NCc3ccccc3)c2)cnc1N [Example 372, 3-amino-N-methyl-6-{3-[(phenylmethyl)amino]phenyl}pyrazine-2-carboxamide] | 50 to 1000
CNC(=O)c1nc(-c2cccc(C(=O)NCc3ccccc3OCCN3CCOCC3)c2)cnc1N [Example 373, 3-amino-N-methyl-6-(3-{[({2-[(2-morpholin-4-ylethyl)oxy]phenyl}methyl)amino]carbonyl}phenyl)pyrazine-2-carboxamide] | 50 to 1000
CNC(=O)c1nc(-c2cccc(CNC(=O)c3ccc(C(C)C)cc3)c2)cnc1N [Example 374, 3-amino-N-methyl-6-{3-[({[4-(1-methylethyl)phenyl]carbonyl}amino)methyl]phenyl}pyrazine-2-carboxamide] | 50 to 1000
CCCCc1ccc(CNC(=O)c2cccc(-c3cnc(N)c(C(=O)NC)n3)c2)cc1 [Example 375, 3-amino-6-[3-({[(4-butylphenyl)methyl]amino}carbonyl)phenyl]-N-methylpyrazine-2-carboxamide] | 50 to 1000
CNC(=O)c1nc(-c2cccc(C(=O)NCc3ccc(-c4csnn4)cc3)c2)cnc1N [Example 376, 3-amino-N-methyl-6-{3-[({[4-(1,2,3-thiadiazol-4-yl)phenyl]methyl}amino)carbonyl]phenyl}pyrazine-2-carboxamide] | < 50
CNC(=O)c1nc(-c2cccc(C(=O)NCc3ccc(-c4cccs4)cc3)c2)cnc1N [Example 377, 3-amino-N-methyl-6-{3-[({[4-(2-thienyl)phenyl]methyl}amino)carbonyl]phenyl}pyrazine-2-carboxamide] | < 50
CNC(=O)c1nc(-c2cccc(CNC(=O)c3ccc(C(C)(C)C)cc3)c2)cnc1N [Example 378, 3-amino-6-{3-[({[4-(1,1-dimethylethyl)phenyl]carbonyl}amino)methyl]phenyl}-N-methylpyrazine-2-carboxamide] | 50 to 1000
CNC(=O)c1nc(-c2cccc(C(=O)NCc3ccc(-n4cccn4)cc3)c2)cnc1N [Example 379, 3-amino-N-methyl-6-{3-[({[4-(1H-pyrazol-1-yl)phenyl]methyl}amino)carbonyl]phenyl}pyrazine-2-carboxamide] | 50 to 1000
CNC(=O)c1nc(-c2cccc(C(=O)NCc3ccc4c(c3)NCCO4)c2)cnc1N [Example 380, 3-amino-6-(3-{[(3,4-dihydro-2H-1,4-benzoxazin-6-ylmethyl)amino]carbonyl}phenyl)-N-methylpyrazine-2-carboxamide] | 50 to 1000
CNC(=O)c1nc(-c2cccc(C(=O)NCc3c(N)cccc3F)c2)cnc1N [Example 381, 3-amino-6-[3-({[(2-amino-6-fluorophenyl)methyl]amino}carbonyl)phenyl]-N-methylpyrazine-2-carboxamide] | 50 to 1000
CNC(=O)c1nc(-c2cccc(CNCc3ccc(-c4ccccc4)cc3)c2)cnc1N [Example 382, 3-amino-6-(3-{[(biphenyl-4-ylmethyl)amino]methyl}phenyl)-N-methylpyrazine-2-carboxamide] | 50 to 1000
CNC(=O)c1nc(-c2cccc(CNCc3ccccc3-c3ccccc3)c2)cnc1N [Example 383, 3-amino-6-(3-{[(biphenyl-2-ylmethyl)amino]methyl}phenyl)-N-methylpyrazine-2-carboxamide] | 50 to 1000
CNC(=O)c1nc(-c2cccc(CNCc3cccc(-c4ccccc4)c3)c2)cnc1N [Example 384, 3-amino-6-(3-{[(biphenyl-3-ylmethyl)amino]methyl}phenyl)-N-methylpyrazine-2-carboxamide] | 50 to 1000
CNC(=O)c1nc(-c2cccc(C(=O)NCC3CCCN3Cc3ccccc3)c2)cnc1N (stereo not shown) [Example 385, 3-amino-N-methyl-6-{3-[({[1-(phenylmethyl)pyrrolidin-2-yl]methyl}amino)carbonyl]phenyl}pyrazine-2-carboxamide] | 50 to 1000
CNC(=O)c1nc(-c2cccc(CNCc3ccc4c(c3)NCCO4)c2)cnc1N [Example 386, 3-amino-6-(3-{[(3,4-dihydro-2H-1,4-benzoxazin-6-ylmethyl)amino]methyl}phenyl)-N-methylpyrazine-2-carboxamide] | 50 to 1000

SMILES | IC50 [nM]
CNC(=O)c1nc(-c2cccc(CNCc3ccc(F)cc3F)c2)cnc1N [Example 387, 3-amino-6-[3-({[(2,4-difluorophenyl)methyl]amino}methyl)phenyl]-N-methylpyrazine-2-carboxamide] | < 50
CNC(=O)c1nc(-c2cccc(CNCc3cc(F)ccc3F)c2)cnc1N [Example 388, 3-amino-6-[3-({[(2,5-difluorophenyl)methyl]amino}methyl)phenyl]-N-methylpyrazine-2-carboxamide] | 50 to 1000
CNC(=O)c1nc(-c2cccc(CNCc3cccc(F)c3F)c2)cnc1N [Example 389, 3-amino-6-[3-({[(2,3-difluorophenyl)methyl]amino}methyl)phenyl]-N-methylpyrazine-2-carboxamide] | 50 to 1000
CNC(=O)c1nc(-c2cccc(C(=O)NCc3ccccc3-c3ccncc3)c2)cnc1N [Example 390, 3-amino-N-methyl-6-[3-({[(2-pyridin-4-ylphenyl)methyl]amino}carbonyl)phenyl]pyrazine-2-carboxamide] | 50 to 1000
CNC(=O)c1nc(-c2cccc(C(=O)NCc3ccccc3-c3cccnc3)c2)cnc1N [Example 391, 3-amino-N-methyl-6-[3-({[(2-pyridin-3-ylphenyl)methyl]amino}carbonyl)phenyl]pyrazine-2-carboxamide] | 50 to 1000
CNC(=O)c1nc(-c2cccc(CNCc3ccc(S(C)(=O)=O)cc3)c2)cnc1N [Example 392, 3-amino-N-methyl-6-{3-[({[4-(methylsulfonyl)phenyl]methyl}amino)methyl]phenyl}pyrazine-2-carboxamide] | 50 to 1000
CNC(=O)c1nc(-c2cccc(CNCC(c3ccccc3)c3ccccc3)c2)cnc1N [Example 393, 3-amino-6-(3-{[(2,2-diphenylethyl)amino]methyl}phenyl)-N-methylpyrazine-2-carboxamide] | 50 to 1000
CNC(=O)c1nc(-c2cccc(C(=O)NCC3CCN(Cc4ccccc4)C3)c2)cnc1N (stereo not shown) [Example 394, 3-amino-N-methyl-6-{3-[({[1-(phenylmethyl)pyrrolidin-3-yl]methyl}amino)carbonyl]phenyl}pyrazine-2-carboxamide] | 50 to 1000
CNC(=O)c1nc(-c2cccc(CNCc3cccc(Oc4ccccc4)c3)c2)cnc1N [Example 395, 3-amino-N-methyl-6-{3-[({[3-(phenyloxy)phenyl]methyl}amino)methyl]phenyl}pyrazine-2-carboxamide] | 50 to 1000
CNC(=O)c1nc(-c2cccc(CNCc3ccc(N)cc3)c2)cnc1N [Example 396, 3-amino-6-[3-({[(4-aminophenyl)methyl]amino}methyl)phenyl]-N-methylpyrazine-2-carboxamide] | 50 to 1000
CNC(=O)c1nc(-c2cccc(CNCc3ccc(Oc4ccccc4)cc3)c2)cnc1N [Example 397, 3-amino-N-methyl-6-{3-[({[4-(phenyloxy)phenyl]methyl}amino)methyl]phenyl}pyrazine-2-carboxamide] | 50 to 1000
CNC(=O)c1nc(-c2cccc(CNCc3c(OC)cccc3OC)c2)cnc1N [Example 398, 3-amino-6-{3-[({[2,6-bis(methyloxy)phenyl]methyl}amino)methyl]phenyl}-N-methylpyrazine-2-carboxamide] | 50 to 1000
CNC(=O)c1nc(-c2cccc(CNCc3ccccc3F)c2)cnc1N [Example 399, 3-amino-6-[3-({[(2-fluorophenyl)methyl]amino}methyl)phenyl]-N-methylpyrazine-2-carboxamide] | < 50
CNC(=O)c1nc(-c2cncc(C(=O)NCc3c(F)cccc3F)c2)cnc1N [Example 400, 3-amino-6-[5-({[(2,6-difluorophenyl)methyl]amino}carbonyl)pyridin-3-yl]-N-methylpyrazine-2-carboxamide] | 50 to 1000
CNC(=O)c1nc(-c2cncc(C(=O)NCc3ccccc3-c3ccccc3)c2)cnc1N [Example 401, 3-amino-6-(5-{[(biphenyl-2-ylmethyl)amino]carbonyl}pyridin-3-yl)-N-methylpyrazine-2-carboxamide] | 50 to 1000
CNC(=O)c1nc(-c2cccc(CNCc3c(F)cccc3F)c2)cnc1N [Example 402, 3-amino-6-[3-({[(2,6-difluorophenyl)methyl]amino}methyl)phenyl]-N-methylpyrazine-2-carboxamide] | 50 to 1000
CNC(=O)c1nc(-c2cccc(CNCc3ccc4c(c3)OCCO4)c2)cnc1N [Example 403, 3-amino-6-(3-{[(2,3-dihydro-1,4-benzodioxin-6-ylmethyl)amino]methyl}phenyl)-N-methylpyrazine-2-carboxamide] | 50 to 1000
